Assay results as given in patent US20210047278A1, “E3 UBIQUITIN LIGASE AGONISTS, PHARMACEUTICAL COMPOSITIONS INCLUDING THE E3 UBIQUITIN LIGASE AGONISTS, RELATED METHODS OF USE” (FRED HUTCHINSON CANCER RESEARCH CENTER, priority 2018, published 2021).
Where two headings read alike, the source gives them in different places.

What was measured:
Format in all cases: binding
[1] = target: T1, FBW7^ARG+pCycE (Homo sapiens, UniProt Q969H0, R505L); experiment: FBW7^ARG-cyclin E agonist ALPHAscreen (primary PRUN, confirmation CRUN1, dose-response DRUN); settings: for EC50 / Emax: DRUN dose-response; for Emax: relative to WT-FBW7+pCycE, read-out: FBW7 ACT Averaged Max % Response
T1 construct: GST (TEV site and flexible linker) (N, cleaved yes); made in house; host or cells: SF9 insect cells (baculovirus)
How it was run: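 Compounds tested once at 26.1 μM (primary; confirmation in triplicate) or in a triplicate 10-point 3-fold dilution up to ~87 μM (dose-response). Bridging of 25 nM mutant FBW7 R505L to 25 nM biotinylated phosphorylated cyclin E peptide detected by Ni-acceptor/streptavidin-donor ALPHA signal, normalized to WT-FBW7+pCycE.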

[2] = target: T2, FBW7^ARG (RLFBW7) alone (Homo sapiens, UniProt Q969H0, R505L); experiment: Counterscreen 1 ALPHAscreen with FBW7^ARG alone (CSRUN1/DCSRUN1); settings: dose-response counterscreen; for Emax: read-out: RLFBW7 ACT DCSRUN1 Averaged Max % Response
T2 construct: GST (TEV site and flexible linker) (N, cleaved yes); made in house; host or cells: SF9 insect cells (baculovirus)
How it was run: (§1)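 Dose-response in triplicate, 10 points in 3-fold steps with a top concentration near 87 μM. Each counterscreen lacks one partner (FBW7^ARG alone or pCycE alone), giving signal not due to the binding pair. Activity is % activation versus WT-FBW7+pCycE; positive threshold 10%.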

[3] = test system: pCycE alone; experiment: Counterscreen 2 ALPHAscreen with cyclin E phosphopeptide alone (CSRUN2/DCSRUN2); settings: for CyCEP ACT DCSRUN2 Averaged Max % Response: activation relative to WT-FBW7+pCycE, averaged maximum; for EC50: dose-response, triplicate, 10 point 3-fold dilutional series, read-out: CyCEP ACT DCSRUN2 Final EC50
How it was run: as §1

[4] = raw curve fit, read-out: FBW7 ACT EC50 Curve Fit Raw, Molar
[5] = triplicate, 10 point 3-fold dilution, max approx. 87 μM, read-out: FBW7 ACT Final EC50, Molar
[6] = confirmation assay, triplicate, single concentration 26.1 μM, read-out: FBW7 ACT CRUN1 Avg % Response and Stdev
[7] = primary screen, 1536-well, 26.1 μM, FBW7^ARG + pCycE degron peptide, high control wt-FBW7+pCycE, read-out: FBW7 ACT PRUN % Response
[8] = raw curve fit, read-out: RLFBW7 ACT DCSRUN1 EC50 Curve Fit Raw
[9] = read-out: RLFBW7 ACT DCSRUN1 Final EC50

T1 sequence (Q969H0 64-707 R505L): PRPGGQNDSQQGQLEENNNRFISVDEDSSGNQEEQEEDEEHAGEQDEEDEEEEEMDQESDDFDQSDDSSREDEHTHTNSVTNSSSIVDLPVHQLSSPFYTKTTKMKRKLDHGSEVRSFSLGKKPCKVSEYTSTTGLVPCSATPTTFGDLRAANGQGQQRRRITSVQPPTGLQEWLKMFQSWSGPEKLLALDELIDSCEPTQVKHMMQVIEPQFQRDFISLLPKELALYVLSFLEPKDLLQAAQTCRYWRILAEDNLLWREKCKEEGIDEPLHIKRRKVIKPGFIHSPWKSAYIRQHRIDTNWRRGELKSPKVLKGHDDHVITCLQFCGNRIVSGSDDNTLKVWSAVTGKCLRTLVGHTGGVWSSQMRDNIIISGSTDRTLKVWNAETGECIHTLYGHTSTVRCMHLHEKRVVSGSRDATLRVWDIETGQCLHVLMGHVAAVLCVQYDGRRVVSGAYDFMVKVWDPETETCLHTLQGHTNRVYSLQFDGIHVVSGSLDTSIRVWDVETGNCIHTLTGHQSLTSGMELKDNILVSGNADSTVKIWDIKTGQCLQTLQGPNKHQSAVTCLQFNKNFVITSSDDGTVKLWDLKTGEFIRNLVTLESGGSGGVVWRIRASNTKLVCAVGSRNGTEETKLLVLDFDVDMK
T1 sequence (P63208 2-163 partner): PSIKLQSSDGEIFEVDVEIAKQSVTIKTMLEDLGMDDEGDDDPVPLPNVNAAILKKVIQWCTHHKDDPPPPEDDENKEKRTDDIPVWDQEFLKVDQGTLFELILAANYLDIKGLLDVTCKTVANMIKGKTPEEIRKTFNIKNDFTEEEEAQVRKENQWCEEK
T2 sequence (Q969H0 64-707 R505L): as the sequence (Q969H0 64-707 R505L) above
T2 sequence (P63208 2-163 partner): as the sequence (P63208 2-163 partner) above

SMILES	EC50 [1, 4] [µM]	Emax [1] [%]	EC50 [1, 5] [µM]	activation at 26.1 µM [1, 6] [%]	activation at 26.1 µM [1, 7] [%]	EC50 [2, 8] [µM]	Emax [2] [%]	EC50 [2, 9] [µM]	CyCEP ACT DCSRUN2 Averaged Max % Response [3] [%]	EC50 [3] [µM]	RLFBW7 ACT DCSRUN1 Hill Slope [2]
COCCOC(=O)C1=C(C)NC2=C(C(=O)CC(c3ccccc3)C2)C1c1ccc(OCc2ccccc2)cc1 (centres unmarked) [SR-01000422392-1]	30.4	8.49	> 51.3	5.36 ± 0.53	3.41	0.689	3	> 51.3	−57.8E−3	> 51.3	–
Cc1ncn(-c2ccc(Nc3cc(-c4nocc4-c4ccccn4)ccn3)cc2)n1.O=C(O)C(F)(F)F [SR-00000006872-1]	2.6	12.1	> 65.3	4.15 ± 0.5	2.76	83.6	2.08	> 65.3	0.34	> 65.3	–
CCSc1nnc(C2CCN(CC(=O)Nc3cccc4ccccc34)CC2)n1C [SR-01000349710-1]	18	22.9	> 65.3	7.92 ± 0.35	2.77	47.6	0.67	> 65.3	0.22	> 65.3	–
COc1ccccc1-c1ccc(N2CCN(C(=O)COc3ccccc3)CC2)nn1 [SR-01000920770-1]	18	23.1	> 65.3	5.69 ± 0.17	7.62	0.0059	-0.274	> 65.3	0.32	> 65.3	–
CC1=C(C(=O)OCc2ccccc2)C(c2cn(-c3ccccc3)nc2-c2ccc(F)cc2)C(C(=O)OCc2ccccc2)=C(C)N1 [SR-01000425637-1]	0.0034	8.34	> 34.2	4.66 ± 1.07	1.93	–	1.54	> 34.2	2.59	> 34.2	–
Cc1cccc(NC(=O)N2CCC(c3nnc(C4CC4)s3)CC2)c1 [SR-01000922889-1]	16.5	18.3	> 65.3	4.96 ± 0.03	3.13	22.5	0.09	> 65.3	0.23	> 65.3	–
Cn1nc(CC(=O)Nc2ccc(F)c(Cl)c2)c2ccccc2c1=O [SR-01000589827-1]	0.698	7.32	> 85	2.48 ± 0.45	1.93	–	-0.247	> 85	0.04	> 85	–
CCCCCCCC(=O)Nc1ccc(C(=O)Nc2ccc(O)c(C(=O)O)c2)cc1 [SR-01000507444-1]	5.7	13.7	> 49.3	4.18 ± 0.65	4.07	–	1.89	> 49.3	2.05	> 49.3	–
Cc1cccc(N2CCN(C(=O)CCc3nc(C4=CCN(C)CC4)no3)CC2C)c1 (centres unmarked) [SR-01000140019-1]	–	10.2	–	3.38 ± 0.3	4.08	–	-0.213	–	0.31	> 65.3	–
CSc1ccccc1C(=O)Nc1nc2nc(C)cc(C)c2s1 [SR-01000917298-1]	53.6	23.5	> 65.3	3.94 ± 9.71	8.85	28.6	83	29.9	0.18	> 65.3	6.64
CCN(CC)c1ccc2cc(-c3nc(C)cs3)c(=O)oc2c1 [SR-01000312020-1]	8.2	13.9	> 65.3	5.16 ± 7.04	3.44	11.6	6.67	> 65.3	0.77	> 65.3	–
CC(C)c1ccc(Nc2nccn3c(-c4ccoc4)cnc23)cc1 [SR-01000376943-1]	12.7	6.99	> 65.3	2.06 ± 0.33	2.3	13.9	-0.189	> 65.3	1.39	> 65.3	–
COc1ccccc1C1C(C(=O)OC2CCCC2)=C(C)NC2=C1C(=O)CC(c1ccccc1)C2 (centres unmarked) [SR-01000422836-1]	2400	10.3	> 45.9	5.59 ± 0.74	2.6	16.4	4.23	> 45.9	0.14	> 45.9	–
CCC(c1nnnn1CCC(C)C)N1CCN(C(=O)c2ccco2)CC1 (centres unmarked) [SR-01000340422-1]	24	6.45	> 65.3	2.97 ± 0.23	2.16	2.3	0.87	> 65.3	0.18	> 65.3	–
